Test results taken from the supplement of paper PMC8671470.

Experiments:
Details in all cases: 72 h
BV-173 [1] = test system: BV-173
Procedure, shortened: (§1)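 Fifteen myeloid leukaemia cell lines were seeded in RPMI 1640 at a density titrated to the linear growth range. Each line went into 384-well plates with compounds acoustically pre-printed at five tenfold doses from 1 to 10,000 nM, in duplicate, and was incubated for 72 h at 37 °C with 5% CO2. Luminescent ATP viability was normalised to vehicle and to a positive control at 10 µM. The IC50 came from four-parameter log-logistic dose–response fits.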

HEL [2] = test system: HEL
Procedure, shortened: as §1

HL-60 [3] = test system: HL-60
Procedure, shortened: as §1

K-562 = test system: K-562
Procedure, shortened: as §1

KCL-22 [4] = test system: KCL-22
Procedure, shortened: as §1

KG-1 [5] = test system: KG-1
Procedure, shortened: as §1

KU-812 [6] = test system: KU-812
Procedure, shortened: as §1

LAMA-84 [7] = test system: LAMA-84
Procedure, shortened: as §1

ML-2 [8] = test system: ML-2
Procedure, shortened: as §1

MOLM-13 [9] = test system: MOLM-13
Procedure, shortened: as §1

MV4-11 [10] = test system: MV4-11
Procedure, shortened: as §1

Mono-Mac-6 [11] = test system: Mono-Mac-6
Procedure, shortened: as §1

NOMO-1 [12] = test system: NOMO-1
Procedure, shortened: as §1

SHI-1 [13] = test system: SHI-1
Procedure, shortened: as §1

THP-1 [14] = test system: THP-1
Procedure, shortened: as §1

BV-173 [15] = assay: cell viability (% survival relative to DMSO control, bortezomib = 0%); higher = less cytotoxic
Procedure, shortened: (§2)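 Seeding density for each of the 10 AML and 5 CML cell lines was titrated to the linear growth range. Cells went into 384-well plates pre-printed in duplicate with compounds at 1, 10, 100, 1000 or 10000 nM and were held for 72 h at 37 °C with 5% CO2. CellTiter-Glo luminescence then provided the readout. Percent survival is expressed relative to vehicle at 100% and a 10 µM positive control at 0%, averaged over duplicates.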

HEL [16] = assay: as above
Procedure, shortened: as §2

HL-60 [17] = assay: as above
Procedure, shortened: as §2

KCL-22 [18] = assay: as above
Procedure, shortened: as §2

KG-1 [19] = assay: as above
Procedure, shortened: as §2

KU-812 [20] = assay: as above
Procedure, shortened: as §2

LAMA-84 [21] = assay: as above
Procedure, shortened: as §2

ML-2 [22] = assay: as above
Procedure, shortened: as §2

MOLM-13 [23] = assay: as above
Procedure, shortened: as §2

MV4-11 [24] = assay: as above
Procedure, shortened: as §2

Mono-Mac-6 [25] = assay: as above
Procedure, shortened: as §2

NOMO-1 [26] = assay: as above
Procedure, shortened: as §2

SHI-1 [27] = assay: as above
Procedure, shortened: as §2

THP-1 [28] = assay: as above
Procedure, shortened: as §2

HL-60 [29] = assay: area under dose-response curve (viability, 1 nM-10 uM) (fraction (0-1)); higher = more sensitive
Procedure, shortened: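 HL-60 cells in RPMI 1640 with 10% FBS were rescreened against the full library on 384-well plates at five tenfold concentrations, 1–10,000 nM, in duplicate. Each screen was run with DMSO or 100 nM of one of three metabolic inhibitors, for 72 h at 37 °C, 5% CO2. Viability was read by CellTiter-Glo and normalised to DMSO and 10 μM proteasome-inhibitor wells. Where given, area under the curve came from four-parameter log-logistic fits (drc, PharmacoGx).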

NS(=O)(=O)c1ccc([N+](=O)[O-])cc1 [4-Nitrobenzenesulfonamide]
Details | IC50 (cell viability) [µM]
BV-173 [1] | > 10
HEL [2] | > 10
HL-60 [3] | > 10
K-562 | > 10
KCL-22 [4] | > 10
KG-1 [5] | > 10
KU-812 [6] | > 10
LAMA-84 [7] | > 10
ML-2 [8] | > 10
MOLM-13 [9] | > 10
MV4-11 [10] | > 10
Mono-Mac-6 [11] | > 10
NOMO-1 [12] | > 10
SHI-1 [13] | > 10
THP-1 [14] | > 10

Details | area under dose-response curve, co-treatment: AZD3965 100 nM | area under dose-response curve, co-treatment: DMSO vehicle | area under dose-response curve, co-treatment: GSK2194069 100 nM | area under dose-response curve, co-treatment: pictilisib 100 nM | cell viability, 1 nM [%] | cell viability, 10 nM [%] | cell viability, 100 nM [%] | cell viability, 1000 nM [%] | cell viability, 10000 nM [%]
BV-173 [15] | – | – | – | – | 101 | 95 | 105 | 97.8 | 86.1
HEL [16] | – | – | – | – | 105 | 98.7 | 105 | 99.6 | 96.3
HL-60 [17] | – | – | – | – | 106 | 111 | 110 | 99.8 | 108
HL-60 [29] | < 0.0301 | < 0.0301 | < 0.0301 | < 0.0301 | – | – | – | – | –
KCL-22 [18] | – | – | – | – | 103 | 101 | 103 | 93.1 | 91.1
KG-1 [19] | – | – | – | – | 107 | 101 | 92.4 | 96.1 | 92.3
KU-812 [20] | – | – | – | – | 102 | 95.7 | 105 | 98.1 | 93
LAMA-84 [21] | – | – | – | – | 99.5 | 95.1 | 103 | 95.4 | 98.6
ML-2 [22] | – | – | – | – | 103 | 111 | 97.3 | 102 | 89.6
MOLM-13 [23] | – | – | – | – | 91.3 | 92.3 | 95.4 | 110 | 107
MV4-11 [24] | – | – | – | – | 102 | 93.4 | 115 | 94.3 | 114
Mono-Mac-6 [25] | – | – | – | – | 101 | 97.3 | 98.1 | 111 | 89.8
NOMO-1 [26] | – | – | – | – | 101 | 105 | 98.5 | 103 | 98.3
SHI-1 [27] | – | – | – | – | 102 | 90.7 | 102 | 100 | 93.8
THP-1 [28] | – | – | – | – | 111 | 101 | 100 | 104 | 90.7

N/C(=N\CCCC(N)C(=O)O)N[N+](=O)[O-] [L-NNA]
Details | IC50 (cell viability) [µM]
BV-173 [1] | > 10
HEL [2] | > 10
HL-60 [3] | > 10
K-562 | > 10
KCL-22 [4] | > 10
KG-1 [5] | > 10
KU-812 [6] | > 10
LAMA-84 [7] | > 10
ML-2 [8] | > 10
MOLM-13 [9] | > 10
MV4-11 [10] | > 10
Mono-Mac-6 [11] | > 10
NOMO-1 [12] | > 10
SHI-1 [13] | > 10
THP-1 [14] | > 10

Details | area under dose-response curve, co-treatment: AZD3965 100 nM | area under dose-response curve, co-treatment: DMSO vehicle | area under dose-response curve, co-treatment: GSK2194069 100 nM | area under dose-response curve, co-treatment: pictilisib 100 nM | cell viability, 1 nM [%] | cell viability, 10 nM [%] | cell viability, 100 nM [%] | cell viability, 1000 nM [%] | cell viability, 10000 nM [%]
BV-173 [15] | – | – | – | – | 96.5 | 103 | 105 | 88.9 | 96.1
HEL [16] | – | – | – | – | 103 | 98.5 | 105 | 91.6 | 95.6
HL-60 [17] | – | – | – | – | 96.1 | 75.4 | 114 | 92.4 | 126
HL-60 [29] | < 0.0301 | < 0.0301 | < 0.0301 | < 0.0301 | – | – | – | – | –
KCL-22 [18] | – | – | – | – | 92.7 | 107 | 106 | 94.8 | 93.5
KG-1 [19] | – | – | – | – | 89.2 | 93.7 | 96.3 | 92.6 | 89.8
KU-812 [20] | – | – | – | – | 88.3 | 92.6 | 102 | 87.4 | 91.8
LAMA-84 [21] | – | – | – | – | 101 | 105 | 100 | 90.9 | 101
ML-2 [22] | – | – | – | – | 90.7 | 102 | 102 | 93.7 | 94.5
MOLM-13 [23] | – | – | – | – | 102 | 73.6 | 92.4 | 98 | 88.4
MV4-11 [24] | – | – | – | – | 96.4 | 103 | 106 | 103 | 107
Mono-Mac-6 [25] | – | – | – | – | 89.4 | 95.8 | 92.1 | 84.2 | 91
NOMO-1 [26] | – | – | – | – | 96.4 | 99.8 | 99.4 | 91.5 | 92.2
SHI-1 [27] | – | – | – | – | 98.8 | 95.6 | 109 | 96.1 | 96.7
THP-1 [28] | – | – | – | – | 98.1 | 105 | 96.9 | 93 | 91.1

O[C@H]1[C@H]2[C@H](O)CCCN2C[C@H]1O [Swainsonine]
Details | IC50 (cell viability) [µM]
BV-173 [1] | > 10
HEL [2] | > 10
HL-60 [3] | > 10
K-562 | > 10
KCL-22 [4] | > 10
KG-1 [5] | > 10
KU-812 [6] | > 10
LAMA-84 [7] | > 10
ML-2 [8] | > 10
MOLM-13 [9] | > 10
MV4-11 [10] | > 10
Mono-Mac-6 [11] | > 10
NOMO-1 [12] | > 10
SHI-1 [13] | > 10
THP-1 [14] | > 10

Details | area under dose-response curve, co-treatment: AZD3965 100 nM | area under dose-response curve, co-treatment: DMSO vehicle | area under dose-response curve, co-treatment: GSK2194069 100 nM | area under dose-response curve, co-treatment: pictilisib 100 nM | cell viability, 1 nM [%] | cell viability, 10 nM [%] | cell viability, 100 nM [%] | cell viability, 1000 nM [%] | cell viability, 10000 nM [%]
BV-173 [15] | – | – | – | – | 98.1 | 104 | 98.3 | 90.8 | 86.1
HEL [16] | – | – | – | – | 99.2 | 83.9 | 108 | 97.3 | 92.5
HL-60 [17] | – | – | – | – | 107 | 88 | 104 | 95.8 | 112
HL-60 [29] | < 0.0301 | < 0.0301 | < 0.0301 | < 0.0301 | – | – | – | – | –
KCL-22 [18] | – | – | – | – | 88.9 | 92.3 | 102 | 98.1 | 89.9
KG-1 [19] | – | – | – | – | 108 | 107 | 92.2 | 87.9 | 93.1
KU-812 [20] | – | – | – | – | 104 | 100 | 100 | 99.8 | 109
LAMA-84 [21] | – | – | – | – | 112 | 94 | 103 | 99.7 | 98.6
ML-2 [22] | – | – | – | – | 97.9 | 97.7 | 108 | 86.4 | 79.5
MOLM-13 [23] | – | – | – | – | 97.8 | 94.2 | 102 | 87.7 | 85.6
MV4-11 [24] | – | – | – | – | 102 | 113 | 87.2 | 69.8 | 69.3
Mono-Mac-6 [25] | – | – | – | – | 101 | 106 | 106 | 90 | 102
NOMO-1 [26] | – | – | – | – | 109 | 103 | 99.4 | 94.7 | 94.1
SHI-1 [27] | – | – | – | – | 93.8 | 110 | 109 | 108 | 102
THP-1 [28] | – | – | – | – | 102 | 102 | 106 | 97.8 | 101
